Details: Liquid; for viscosity: Concentric cylinders viscometry

CCn1cc[n+](C)c1.CO[PH](=O)[O-] [1-ethyl-3-methylimidazolium methyl phosphonate]
Details	mass density [kg/m3]
351.3 K, 180000 kPa, Bellows volumetry	1223.7
351.3 K, 190000 kPa, Bellows volumetry	1226.6
351.3 K, 200000 kPa, Bellows volumetry	1229.5
353.15 K, 101.33 kPa, Vibrating tube method	1159.9
363.15 K, 101.33 kPa, Vibrating tube method	1153.8
371.3 K, 10000 kPa, Bellows volumetry	1152.1
371.3 K, 20000 kPa, Bellows volumetry	1156.2
371.3 K, 30000 kPa, Bellows volumetry	1161
371.3 K, 40000 kPa, Bellows volumetry	1165.2
371.3 K, 50000 kPa, Bellows volumetry	1169.2
371.3 K, 60000 kPa, Bellows volumetry	1173.3
371.3 K, 70000 kPa, Bellows volumetry	1177.2
371.3 K, 80000 kPa, Bellows volumetry	1180.9
371.3 K, 90000 kPa, Bellows volumetry	1184.5
371.3 K, 100000 kPa, Bellows volumetry	1188.2
371.3 K, 110000 kPa, Bellows volumetry	1191.6
371.3 K, 120000 kPa, Bellows volumetry	1195
371.3 K, 130000 kPa, Bellows volumetry	1198.3
371.3 K, 140000 kPa, Bellows volumetry	1201.6
371.3 K, 150000 kPa, Bellows volumetry	1204.7
371.3 K, 160000 kPa, Bellows volumetry	1207.9
371.3 K, 170000 kPa, Bellows volumetry	1210.9
371.3 K, 180000 kPa, Bellows volumetry	1213.9
371.3 K, 190000 kPa, Bellows volumetry	1216.8
371.3 K, 200000 kPa, Bellows volumetry	1219.8
373.15 K, 101.33 kPa, Vibrating tube method	1147.6
391.2 K, 10000 kPa, Bellows volumetry	1140.6
391.2 K, 20000 kPa, Bellows volumetry	1144.9
391.2 K, 30000 kPa, Bellows volumetry	1149.5
391.2 K, 40000 kPa, Bellows volumetry	1154
391.2 K, 50000 kPa, Bellows volumetry	1158.2
391.2 K, 60000 kPa, Bellows volumetry	1162.3
391.2 K, 70000 kPa, Bellows volumetry	1166.4
391.2 K, 80000 kPa, Bellows volumetry	1170.4
391.2 K, 90000 kPa, Bellows volumetry	1174.1
391.2 K, 100000 kPa, Bellows volumetry	1177.9
391.2 K, 110000 kPa, Bellows volumetry	1181.4
391.2 K, 120000 kPa, Bellows volumetry	1184.9
391.2 K, 130000 kPa, Bellows volumetry	1188.3
391.2 K, 140000 kPa, Bellows volumetry	1191.6
391.2 K, 150000 kPa, Bellows volumetry	1194.9
391.2 K, 160000 kPa, Bellows volumetry	1198.1
391.2 K, 170000 kPa, Bellows volumetry	1201.2
391.2 K, 180000 kPa, Bellows volumetry	1204.2
391.2 K, 190000 kPa, Bellows volumetry	1207.2
391.2 K, 200000 kPa, Bellows volumetry	1210.2
411.1 K, 10000 kPa, Bellows volumetry	1128.7
411.1 K, 20000 kPa, Bellows volumetry	1133.3
411.1 K, 30000 kPa, Bellows volumetry	1138.1
411.1 K, 40000 kPa, Bellows volumetry	1142.8
411.1 K, 50000 kPa, Bellows volumetry	1147.3
411.1 K, 60000 kPa, Bellows volumetry	1151.7
411.1 K, 70000 kPa, Bellows volumetry	1155.8
411.1 K, 80000 kPa, Bellows volumetry	1159.9
411.1 K, 90000 kPa, Bellows volumetry	1163.9
411.1 K, 100000 kPa, Bellows volumetry	1167.6
411.1 K, 110000 kPa, Bellows volumetry	1171.3
411.1 K, 120000 kPa, Bellows volumetry	1174.9
411.1 K, 130000 kPa, Bellows volumetry	1178.4
411.1 K, 140000 kPa, Bellows volumetry	1181.8
411.1 K, 150000 kPa, Bellows volumetry	1185.3
411.1 K, 160000 kPa, Bellows volumetry	1188.5
411.1 K, 170000 kPa, Bellows volumetry	1191.7
411.1 K, 180000 kPa, Bellows volumetry	1194.8
411.1 K, 190000 kPa, Bellows volumetry	1197.9
411.1 K, 200000 kPa, Bellows volumetry	1201

101.33 kPa
Details	viscosity [mPa·s]
353.15 K	14.71
363.15 K	11.54
373.15 K	9.289

Reference: the NIST ThermoML archive (doi:10.1021/je5009679)
